{"source": "patent US7951232B2", "about": "“Surface coating compositions and methods” (Elevance Renewable Sciences, Inc., priority 2006, dated 2011)", "key": {"[1]": {"test_system": "Escherichia coli, ATCC 11229", "test": "Time-Kill Procedure (ASTM) at pH 7", "assay_type": "cell-based", "description": "The rate of kill for these organisms upon exposure to 9-decenoic acid was determined using the American Society for Testing and Materials (ASTM) procedure entitled “Standard Test Method for the Assessment of Microbiocidal Activity of Test Materials Using a Time-Kill Procedure”, October 1998. This procedure incorporates the recommendations described in the “Manual of Clinical Microbiology,”5th ed., edited by A. B. Balows et al., ASM, Washington, and is directed by the Federal Register, June 1994.\nStock cultures were transferred into TSB and incubated for 18-24 hours at 37±2° C. A second transfer was made onto TSA plates and were incubated for 18-24 hours at 37±2° C. The plates were removed from incubation and the bacterial growth washed from the agar surface using Butterfield's Phosphate Buffered Dilution Water (PBDW). The bacterial suspension was adjusted to contain approximately 10^8 Colony Forming Units (CFU)/ml with PBDW using spectrophometric methods extant in the laboratory.\nThe concentrated 9-decenoic acid was diluted 1:40 in filter sterilized isopropanol to yield a 2.5% stock solution. Subsequent dilutions to the 9-decenoic acid stock solutions were made with sterile Deionized Water (DI) to achieve concentrations of 0.1%, 0.05%, 0.01%, and 0.001%. The pH was determined for each dilution; pH values ranged from 4.4-4.1. Additionally, the 9-decenoic acid stock solution was adjusted to pH 7 with 1 N NaOH and serially diluted with sterile DI to achieve concentrations of 1.0%, 0.75% and 0.5%.\nCompliant with the ASTM procedure cited, for each challenge microorganism a 9.9 ml aliquot of the prepared 9-decenoic acid suspension was added to a sterile tube. A 0.1 ml aliquot of the standardized inoculum was added to the 9-decenoic acid solution representing the start of the test exposure. The inoculated 9-decenoic acid solution was immediately mixed thoroughly. The inoculated suspension was held at room temperature for 0.5, 2, 5, 7 and 10 minute exposure times for tests run at ˜pH 4. The pH 7 tests were held at room temperature for 0.5 and 2 minutes.\nAt each exposure sample time, a 1.0 ml aliquot of the inoculated 9-decenoic acid suspension was transferred to 9.0 ml of D/E Neutralizing Broth. Additional ten-fold serial dilutions were made in PBDW and plated in duplicate on TSA. All plates were incubated for 48 hours at 37±2° C. and visually examined for growth. The plates are enumerated, recorded and log kill determined for each time point.\nThe following study controls were conducted: culture purity, neutralizer sterility, initial suspension population, test population, neutralization verification and a negative control using isopropanol. Culture purity was verified by performing a streak plate for isolated colonies on the each culture used. All cultures were determined to be pure based on consistent colony morphology typical for the test organism. The neutralizer sterility was confirmed by no growth in an incubated sample.\nThe population of the initial and test culture were determined by serial dilution, plating and enumerating after incubation. The initial suspension were determined to be ≧10^4 CFU/ml. The test culture population was used for calculation of the log reduction achieved at each time point.\nNeutralization effectiveness was verified by a filtration test. For each organism, four tubes were prepared with 9 ml D/E Neutralizing Broth and fewer than 100 CFU/ml of the organism. A 1.0 ml aliquot of prepared 9-decenoic acid was added to each tube. Immediately, the entire contents of 2 tubes were filtered through a filtration apparatus and rinsed with sterile diluent. The remaining 2 tubes were held at room temperature for 30 minutes and then the entire contents were filtered using the same procedure. The filters were aseptically transferred to TSA plates and incubated for 48 hours at 37±2° C. and visually examined for growth.\nThis control was inoculated, subcultured and incubated as in the test procedure."}, "[2]": {"test_system": "Aureobasidium pullulans ATCC 12536", "test": "Dry film preservative test, growth on PDA agar surface", "assay_type": "cell-based", "description": "The efficacy of 9-decenoic acid and the methyl ester of 9-decenoic acid as a dry film preservative was determined through the incubation of Trichoderma virens ATCC 9645, Cladosporium cladosporiodes ATCC 16022 and Aureobasidium pullulans ATCC 12536 in the presence of varying concentrations of 9-decenoic acid or the methyl ester of 9-decenoic acid on an agar surface.\nFungal spores were hydrated overnight in 0.1% Tween 80 and then plated on Potato Dextrose Agar (PDA) and incubated at 25-30° C. for 6 days. The spores were washed from the surface with 5 mls of 0.1% Tween 80 and enumerated.\nPDA plates with prepared according to the manufactures instructions through sterilization. The agar was tempered to approximately 50° C. and filter sterilized 9-decenoic acid was added to achieve concentrations of 0.1, 0.5 and 1.0% in the agar. Additionally, one concentration of the methyl ester of 9-decenoic acid (0.5%) was also prepared. The agar was thoroughly mixed and poured into sterile petri plates and allowed to solidify.\nThe agar plates were inoculated with the spore solution to achieve 10^2 spores/plate. The plates were incubated at 25-30° C. in Ziploc bags with a wet paper towel to keep the moisture level high. The plates were examined for growth after 4, 7, 16, 24 and 31 days. The percent coverage of growth on the agar surface was recorded at each sample point."}}, "data": [{"compound": "C=CCCCCCCCC(=O)O", "note": "[9-decenoic acid]", "values": [{"measurement": "Log reduction after exposure at pH 7", "setting": "[1]; 0.5%, pH 7, exposure 0.5 minutes", "result": 0, "unit": "log"}, {"measurement": "Log reduction after exposure at pH 7", "setting": "[1]; 0.5%, pH 7, exposure 2 minutes", "result": 0, "unit": "log"}, {"measurement": "Log reduction after exposure at pH 7", "setting": "[1]; 0.75%, pH 7, exposure 0.5 minutes", "result": 0.83, "unit": "log"}, {"measurement": "Log reduction after exposure at pH 7", "setting": "[1]; 0.75%, pH 7, exposure 2 minutes", "result": ">4.2", "unit": "log"}, {"measurement": "Log reduction after exposure at pH 7", "setting": "[1]; 1.0%, pH 7, exposure 0.5 minutes", "result": ">4.2", "unit": "log"}, {"measurement": "Log reduction after exposure at pH 7", "setting": "[1]; 1.0%, pH 7, exposure 2 minutes", "result": ">4.2", "unit": "log"}, {"measurement": "Percentage coverage of agar surface", "setting": "[2]; 0.1% in PDA agar, 4 days", "result": 0, "unit": "%"}, {"measurement": "Percentage coverage of agar surface", "setting": "[2]; 0.1% in PDA agar, 7 days", "result": 0, "unit": "%"}, {"measurement": "Percentage coverage of agar surface", "setting": "[2]; 0.1% in PDA agar, 16 days", "result": 0, "unit": "%"}, {"measurement": "Percentage coverage of agar surface", "setting": "[2]; 0.1% in PDA agar, 24 days", "result": 0, "unit": "%"}, {"measurement": "Percentage coverage of agar surface", "setting": "[2]; 0.1% in PDA agar, 31 days", "result": 0, "unit": "%"}, {"measurement": "Percentage coverage of agar surface", "setting": "[2]; 0.5% in PDA agar, 4 days", "result": 0, "unit": "%"}, {"measurement": "Percentage coverage of agar surface", "setting": "[2]; 0.5% in PDA agar, 7 days", "result": 0, "unit": "%"}, {"measurement": "Percentage coverage of agar surface", "setting": "[2]; 0.5% in PDA agar, 16 days", "result": 0, "unit": "%"}, {"measurement": "Percentage coverage of agar surface", "setting": "[2]; 0.5% in PDA agar, 24 days", "result": 0, "unit": "%"}, {"measurement": "Percentage coverage of agar surface", "setting": "[2]; 0.5% in PDA agar, 31 days", "result": 0, "unit": "%"}, {"measurement": "Percentage coverage of agar surface", "setting": "[2]; 1.0% in PDA agar, 4 days", "result": 0, "unit": "%"}, {"measurement": "Percentage coverage of agar surface", "setting": "[2]; 1.0% in PDA agar, 7 days", "result": 0, "unit": "%"}, {"measurement": "Percentage coverage of agar surface", "setting": "[2]; 1.0% in PDA agar, 16 days", "result": 0, "unit": "%"}, {"measurement": "Percentage coverage of agar surface", "setting": "[2]; 1.0% in PDA agar, 24 days", "result": 0, "unit": "%"}, {"measurement": "Percentage coverage of agar surface", "setting": "[2]; 1.0% in PDA agar, 31 days", "result": 0, "unit": "%"}, {"measurement": "effectiveness as dry film preservative", "setting": "[2]; at 0.1% for up to 31 days", "result": "effective"}]}]}
